{
  "source": "patent US20250026916A1",
  "about": "“ULTRAVIOLET ABSORBER AND USE THEREOF” (RIANLON (ZHONGWEI) NEW MATERIAL CO., LTD., priority 2023, published 2025)",
  "key": {"[1]": {"assay": "Absorption spectrum in chloroform (UV-visible spectrophotometer)", "assay_type": "physicochemical", "conditions": "chloroform solution 10 mg/L; for Peak area ratio in waveband 280-450 nm: total", "description": "The absorption spectra were measured using an ultraviolet-visible spectrophotometer, and the instrument model is (UV-2600, Shimadzu corporation, Japan). The absorption spectra were compared in Table 1 below."}, "[2]": {"assay": "Color test, Gardner color scale of DMF solution", "assay_type": "physicochemical", "conditions": "2 g dissolved in 18 g DMF", "description": "The completely dissolved solution was transferred to a cuvette, and the Gardner color scale value transmitted by the solvent was measured. The instrument was a Ci7600 bench spectrophotometer (X-rite, the United States)."}, "[3]": {"conditions": "general description of the commercial product; cited from earlier work"}, "[4]": {"assay": "Solubility/compatibility test in typical oligomer resins", "conditions": "mass soluble in 100 g of oligomer, 20° C.", "experimental": "Test method: The mass of soluble ultraviolet absorber in 100 g of oligomer when the ambient temperature is 20° C."}},
  "data": [
    {"smiles": "CCCCN1C(=O)c2cc3nn(-c4cc(C(C)(C)CC(C)(C)C)cc(C(C)(C)c5ccccc5)c4O)nc3cc2C1=O", "note": "[Carboprotect, reference compound]", "values": [
      {"measurement": "Absorption cut-off wavelength", "setting": "[1]", "result": 435, "unit": "nm"},
      {"measurement": "Maximum absorption peak in red shift direction", "setting": "[1]", "result": 374, "unit": "nm"},
      {"measurement": "Peak area ratio in waveband 280-360 nm", "setting": "[1]", "result": 56.2, "unit": "%"},
      {"measurement": "Peak area ratio in waveband 361-380 nm", "setting": "[1]", "result": 14.6, "unit": "%"},
      {"measurement": "Peak area ratio in waveband 381-400 nm", "setting": "[1]", "result": 18.5, "unit": "%"},
      {"measurement": "Peak area ratio in waveband 401-450 nm", "setting": "[1]", "result": 10.7, "unit": "%"},
      {"measurement": "Peak area ratio in waveband 280-450 nm", "setting": "[1]", "result": 100, "unit": "%"},
      {"measurement": "Gardner color scale", "setting": "[2]", "result": 11.5},
      {"measurement": "Wavelength to which absorption can be red-shifted", "setting": "[3]", "result": 420, "unit": "nm"}
    ]},
    {"smiles": "CCCCCCCCCCCCSc1ccc2nn(-c3cc(C)cc(C(C)(C)C)c3O)nc2c1", "note": "[RSUV-1]", "values": [
      {"measurement": "Solubility in cyclohexanedimethylene diisocyanate (H6XDI)", "setting": "[4]", "result": 4.2, "unit": "g"},
      {"measurement": "Solubility in hexamethylene diisocyanate (HDI) trimer", "setting": "[4]", "result": 4.6, "unit": "g"},
      {"measurement": "Solubility in tripropylene glycol diacrylate", "setting": "[4]", "result": 3.9, "unit": "g"},
      {"measurement": "Absorption cut-off wavelength", "setting": "[1]", "result": 416, "unit": "nm"},
      {"measurement": "Maximum absorption peak in red shift direction", "setting": "[1]", "result": 369, "unit": "nm"},
      {"measurement": "Peak area ratio in waveband 280-360 nm", "setting": "[1]", "result": 58.1, "unit": "%"},
      {"measurement": "Peak area ratio in waveband 361-380 nm", "setting": "[1]", "result": 26.5, "unit": "%"},
      {"measurement": "Peak area ratio in waveband 381-400 nm", "setting": "[1]", "result": 13.6, "unit": "%"},
      {"measurement": "Peak area ratio in waveband 401-450 nm", "setting": "[1]", "result": 1.8, "unit": "%"},
      {"measurement": "Peak area ratio in waveband 280-450 nm", "setting": "[1]", "result": 100.0, "unit": "%"},
      {"measurement": "Gardner color scale", "setting": "[2]", "result": 3.0}
    ]},
    {"smiles": "CCCCCCCCCCCCS(=O)(=O)c1ccc2nn(-c3cc(C)cc(C(C)(C)C)c3O)nc2c1", "note": "[RSUV-2]", "values": [
      {"measurement": "Solubility in cyclohexanedimethylene diisocyanate (H6XDI)", "setting": "[4]", "result": 3, "unit": "g"},
      {"measurement": "Solubility in hexamethylene diisocyanate (HDI) trimer", "setting": "[4]", "result": 3.5, "unit": "g"},
      {"measurement": "Solubility in tripropylene glycol diacrylate", "setting": "[4]", "result": 3.8, "unit": "g"},
      {"measurement": "Absorption cut-off wavelength", "setting": "[1]", "result": 430, "unit": "nm"},
      {"measurement": "Maximum absorption peak in red shift direction", "setting": "[1]", "result": 370, "unit": "nm"},
      {"measurement": "Peak area ratio in waveband 280-360 nm", "setting": "[1]", "result": 65.4, "unit": "%"},
      {"measurement": "Peak area ratio in waveband 361-380 nm", "setting": "[1]", "result": 18.1, "unit": "%"},
      {"measurement": "Peak area ratio in waveband 381-400 nm", "setting": "[1]", "result": 11.8, "unit": "%"},
      {"measurement": "Peak area ratio in waveband 401-450 nm", "setting": "[1]", "result": 4.7, "unit": "%"},
      {"measurement": "Peak area ratio in waveband 280-450 nm", "setting": "[1]", "result": 100.0, "unit": "%"},
      {"measurement": "Gardner color scale", "setting": "[2]", "result": 5.2}
    ]},
    {"smiles": "Cc1cc(-n2nc3ccc(Cl)cc3n2)c(O)c(C(C)(C)C)c1", "note": "[UV-326, 2′-(2′-hydroxy-3′-tert-butyl-5′-methylphenyl)-5-chlorobenzotriazole, reference compound]", "values": [
      {"measurement": "Absorption cut-off wavelength", "setting": "[1]", "result": 410, "unit": "nm"}
    ]}
  ]
}
